In patent publication US10722491B2, “Phenol compound and combination of same with a benzodiazepine fused to 1,4-dihydropyridine for treating diseases of the central nervous and vascular systems” (UNIVERSIDAD DE LA HABANA, priority 2016, dated 2020):

Legend:
[1] = tested on: transient occlusion of the common carotid arteries; assay: Vascular dementia model (transient occlusion of common carotid arteries), Morris maze; type: in vivo, male Swiss albino mice; conditions: JM-20 4 mg/kg p.o., 1 hour after reperfusion and all days of the test; vs animals without treatment
Experimental: As a model of vascular dementia, the animals (male Swiss albino mice) underwent transient occlusion of the common carotid arteries for 20 minutes and cognitive impairment was evaluated through the Morris labyrinthine assay. […] As a model of permanent cortical ischemia, thermo-coagulation of the pials arteries was induced and the percentage of asymmetry was quantified.

[2] = KM-34 capacity to reduce DPPH radicals; type: biochemical; conditions: DPPH 100 μM, 30 minutes of reaction; read-out: IC50, reduction of DPPH radicals
Experimental: FIG. 1. Percentage reduction of DPPH (100 μM) by KM-34 (5-400 μM) was determined by changing in the absorbance at 550 nm from a target containing only DPPH and vehicle (zero concentration of KM −34 or AA), after 30 minutes of reaction. Values are expressed as the mean ± SD (n=3). *P<0.05 with respect to the vehicle.
One of the most commonly used methods to estimate antioxidant activity is to evaluate the ability of different compounds to reduce DPPH radicals, which can be determined spectrophotometrically (Brand-Williams et al., 1995). […] Electron delocalization causes the intense violet coloration of the DPPH radical form when it is prepared in ethanol solution (Molyneux et al., 2004).
The IC 50 value obtained for KM was approximately 2.4 times lower than that obtained for ascorbic acid (AA) used as the reference compound.

IC50 [2] [µM] | Compound | Escape latency time, Morris maze [1]
 | CCOC(=O)C1=C(C)NC2=C(C=Nc3ccccc3N2)C1c1ccccc1[N+](=O)[O-] (centres unmarked) [JM-20, 3-ethoxycarbonyl-2-methyl-4-(2-nitrophenyl)-4,11-dihydro-1H-pyrido[2,3-b][1,5]benzodiazepine] | significantly (p<0.05)
38.7 | O=C1O[C@H]([C@@H](O)CO)C(O)=C1O [AA, ascorbic acid, reference compound] | 
